7 compounds from patent US7048907B2, “Synthesis, compositions and methods for the measurement of the concentration of stable-isotope labeled compounds in life forms and life form excretory products” (BioPhysics Assay Laboratory, Inc., priority 2001, dated 2006) can be followed below.

Series [1] can be described thus: Stability of chelates to autoclaving (CM-Sephadex assay). In kind it is physicochemical. The note with it: for % of total / dpm: autoclaved 30 minutes at 121° C. The method, then: A sample comprising 5 ml of Sm-DTPA, La-DTPA, and Eu-DTPA prepared in Examples 9, 10, and 11 were placed in 10 ml glass bottles, each capped with a grey butyl rubber cap, and the caps were crimped. Samples were autoclaved for 30 minutes at 121° C.
Five ml of each of Sm-DOTA, La-DOTA, and Eu-DOTA prepared in Examples 13, 14, and 15 were placed in 10 ml glass bottles capped with a grey butyl rubber cap and crimped. Samples were autoclaved for 30 minutes at 121° C. Samples were allowed to cool to room temperature and were assayed as described in Examples 25.

Series [2] can be described thus: Assay of chelate on carboxymethyl (CM) Sephadex column (chelate formation, charge). In kind it is physicochemical. On the procedure:
Preparation of carboxymethyl sephadex column. To two 10 ml plastic pipets cut off at the 3 ml mark and plugged with glass wool at the bottom add enough slurry to form a 2 ml volume of the CM sephadex. Wash the packed resin with 6 ml of 1 M Tris buffer pH 7.5, and 6 ml of 0.01M Tris buffer pH 7.5. […] Collect the eluants of fractions as follows. Fraction 1.3 ml of 0.01 M Tris buffer pH 7.5 and allow to drain into column. Fraction 2.1 ml of sample (gadolinium-DTPA or gadolinium chloride) and allow to drain into column. Apply 3 ml of 0.01 M Tris buffer pH 7.5 and allow to drain into column. Fraction 3.3 ml of 0.01M Tris buffer pH 7.5 and allow to drain into column. Dry all fractions at 70° C. for 76 hours, dissolve in 1 ml of 1 mM HCl and assay by atomic absorption.
(§1) Preparation of carboxymethyl Sephadex column. To two 10 ml plastic pipets which had been cut off at the 3 ml mark and plugged with glass wool at the bottom, enough slurry was added to form a 2 ml volume of the CM Sephadex. The packed resin was wash with 6 ml of 1 M Tris buffer pH 7.5, and 6 ml of 0.01M Tris buffer pH 7.5. […] Fractions were applied as follows. Fraction 1. Three ml of 0.01 M Tris buffer pH 7.5 and allow to drain into column. Fraction 2. One ml of sample (samarium-DTPA or samarium chloride) and allow to drain into column. Apply 3 ml of 0.01 M Tris buffer pH 7.5 and allow to drain into column. Fraction 3. Three ml of 0.01M Tris buffer pH 7.5 and allow to drain into column. Collect the eluant of fractions 1 through 3. Fraction 4. Column and contents.
as §1, with “were” for “had been”, “washed” for “wash”, “(lanthanum-DTPA” for “(samarium-DTPA”, “lanthanum” for “samarium”
as §1, with “were” for “had been”, “washed” for “wash”, “(Europium-DTPA” for “(samarium-DTPA”, “Europium” for “samarium”
Preparation of carboxymethyl sephadex column. To a 10 ml plastic pipet cut off at the 3 ml mark and plugged with glass wool at the bottom, add enough slurry to form a 2 ml volume of the CM sephadex. Wash the packed resin with 6 ml of 1 M Tris buffer pH 7.5, and 6 ml of 0.01M Tris buffer pH 7.5. […] Apply fractions as follows. Fraction 1. One ml of sample A and allow to drain into column.

Series [3] in a line: Stability of chelates in rat serum (CM-Sephadex assay, serum binding). The note with it: 24 hours in rat serum at room temperature.
The nature of series [4]: Kinetics of blood depletion and urine accumulation of chelates in the rat. In kind it is in vivo. The note with it: ^99mTc-DTPA, Gd-DTPA and Sm-DTPA simultaneously administered (Example 30), average of three rats. The method, then:
One half ml of Sm-DTPA (0.01 mg/kg), dissolved in saline (pH 7), is injected into the tail vein of three rats. Samples of blood are obtained at 10, 30 and 60 minutes following injection and analyzed for Sm-DTPA by neutron activation. The percent of starting amount of the Sm-DTPA at each time interval is presented in Table 18 (last column on right). Similarly, the accumulation of Sm-DTPA in the rat urine at two times is shown in the last column of Table 18.
One half ml of Technetium-99m-DTPA (1 millicurie), Gd-DTPA (0.05 mg/kg), and Sm-DTPA (0.01 mg/kg) are each dissolved in saline (pH 7), and are injected simultaneously into the tail vein of three rats. Samples of blood are obtained at 10, 30 and 60 minutes following injection and analyzed for ^99mTc-DTPA (gamma counting), Gd-DTPA (T1 relaxation) and Sm-DTPA (neutron activation).
One half ml of Sm-DTPA, La-DTPA and Eu-DTPA (each 0.01 mg/kg), dissolved in saline (pH 7) are injected simultaneously into the tail vein of three rats. Samples of blood are obtained at 10, 30 and 60 minutes following injection and analyzed for each element by neutron activation.
Samples of Sm-DTPA, La-DTPA and Eu-DTPA (0.5 ml; 0.01 mg/kg), each dissolved in saline (pH 7), are injected sequentially at 0, 20, and 40 minutes into the tail vein of three rats. Samples of blood are obtained at 10, 30 and 60 min following each injection and analyzed for each element by neutron activation.

Where [5] appears, read: Fraction 1: sample diluted 1:10 then 2-3 ml 0.01M Tris pH 7.5 (eluate).
The mark [6] stands for this setting: Fraction 2: 3 ml 0.01M Tris pH 7.5.
The mark [7] stands for this setting: Fraction 3: column and contents (retained).
Setting [8] is: DOTA chelates, Fraction 1: 1 ml sample diluted 1:10 then 3 ml 0.01M Tris pH 7.5 (eluate).
Setting [9] is: DOTA chelates, Fraction 2: further 3 ml 0.01M Tris pH 7.5.
Where [10] appears, read: DOTA chelates, Fraction 3: column and contents (retained).
Setting [11] is: Fraction 1: 3 ml 0.01M Tris pH 7.5 before sample.
Setting [12] is: Fraction 2: 1 ml sample then 3 ml 0.01M Tris pH 7.5 (eluate).
[13] abbreviates: Fraction 3: further 3 ml 0.01M Tris pH 7.5.
The mark [14] stands for this setting: Fraction 4: column and contents (retained).
The mark [15] stands for this setting: Fraction 1: 0.2 ml sample then 2 ml 0.01M Tris pH 7.5 (eluate).

As for `O=C([O-])CN1CCN(CC(=O)[O-])CCN(CC(=O)[O-])CCN(CC(=O)[O-])CC1.[Eu+3]` [Eu-DOTA], the “% eluted from CM-Sephadex column following autoclaving” value in series [1] was determined as 100%. Besides, the “% of total” value in series [1] (setting [5]) is recorded as 100 % of total; in series [1] (setting [6]), <1 % of total; in series [1] (setting [7]), 0 % of total; in series [2] (setting [8]) it was 100 % of total; in series [2] (setting [9]), <1 % of total; in series [2] (setting [10]) it was 0 % of total. Also, the dpm in series [1] (setting [5]) was determined as 366651 dpm; in series [1] (setting [6]), 1226 dpm; in series [1] (setting [7]), 0 dpm; in series [2] (setting [8]), 391454 dpm; in series [2] (setting [9]) it was 132 dpm; in series [2] (setting [10]), 0 dpm. Moreover, in series [2], the “% eluted from the CM-Sephadex column” value is given as 100%.
Turning to `[Cl][Eu]([Cl])[Cl]` [Europium chloride, reference compound], the “% of unchelated ion retained on the column” value (from here on “% of unchelated ion retained”) in series [2] is reported as 100%. In addition, the “% of total” value is listed as 0 % of total in series [2] (setting [11]); 0 % of total in series [2] (setting [12]); 0 % of total in series [2] (setting [13]); 100 % of total in series [2] (setting [14]); 42 % of total in series [3] (setting [15]); 5 % of total in series [3] (setting [6]). The “% of total” value in series [3] (setting [7]) is reported as 52 % of total. The dpm in series [2] (setting [11]) is 0 dpm; in series [2] (setting [12]), 0 dpm; in series [2] (setting [13]) it was 0 dpm; in series [2] (setting [14]), 21244 dpm; in series [3] (setting [15]), 2378 dpm; in series [3] (setting [6]) it was 291 dpm. Further, the dpm in series [3] (setting [7]) is recorded as 2940 dpm.
Consider `[Cl][Gd]([Cl])[Cl]` [Gadolinium chloride, reference compound], for which the “% of unchelated ion retained” value in series [2] stood at 100%. The “% of total” value in series [2] (setting [11]), in series [2] (setting [12]) and in series [2] (setting [13]) was 0 % of total throughout.
As for `O=C([O-])CN1CCN(CC(=O)[O-])CCN(CC(=O)[O-])CCN(CC(=O)[O-])CC1.[La+3]` [La-DOTA], the “% eluted from CM-Sephadex column following autoclaving” value in series [1] is 100%. The “% of total” value is 100 % of total in series [1] (setting [5]); <1 % of total in series [1] (setting [6]); 0 % of total in series [1] (setting [7]); 97 % of total in series [2] (setting [8]); 3 % of total in series [2] (setting [9]); 0 % of total in series [2] (setting [10]). The dpm in series [1] (setting [5]) stood at 400045 dpm; in series [1] (setting [6]), 11 dpm; in series [1] (setting [7]), 0 dpm; in series [2] (setting [8]) it was 410040 dpm; in series [2] (setting [9]) it was 11681 dpm; in series [2] (setting [10]), 0 dpm. In addition, the “% eluted from the CM-Sephadex column” value in series [2] is 100%.
In the case of `[Cl][La]([Cl])[Cl]` [Lanthanum chloride, reference compound], the “% of unchelated ion retained” value in series [2] stood at 100%. Besides, the “% of total” value is reported as 0 % of total in series [2] (setting [11]); 0 % of total in series [2] (setting [12]); 0 % of total in series [2] (setting [13]); 100 % of total in series [2] (setting [14]); 49 % of total in series [3] (setting [15]); 6 % of total in series [3] (setting [6]). Also, the “% of total” value in series [3] (setting [7]) is 44 % of total. Also, the dpm in series [2] (setting [11]) turned out to be 0 dpm; in series [2] (setting [12]), 0 dpm; in series [2] (setting [13]), 0 dpm; in series [3] (setting [15]) it was 51651 dpm; in series [3] (setting [6]), 6586 dpm; in series [3] (setting [7]), 46450 dpm.
For `O=C([O-])CN1CCN(CC(=O)[O-])CCN(CC(=O)[O-])CCN(CC(=O)[O-])CC1.[Sm+3]` [Sm-DOTA], the “stability to autoclaving” value in series [1] was “unstable product producing a mixture of Sm-DOTA and unchelated Sm^+3”. The “% of total” value in series [1] (setting [5]) is 98 % of total; in series [1] (setting [6]), 2 % of total; in series [1] (setting [7]), 0 % of total; in series [2] (setting [8]) it was 98 % of total; in series [2] (setting [9]), 2 % of total; in series [2] (setting [10]), 0 % of total. In addition, the dpm in series [1] (setting [5]) is reported as 1439622 dpm; in series [1] (setting [6]) it was 27521 dpm; in series [1] (setting [7]), 0 dpm; in series [2] (setting [8]), 1429326 dpm; in series [2] (setting [9]) it was 28850 dpm; in series [2] (setting [10]), 0 dpm. Besides, the “% eluted from the CM-Sephadex column” value in series [2] stood at 100%.
“Technetium-99m-DTPA [^99mTc-DTPA, reference compound]”: the figures for the “Percent of initial injection, blood” value in series [4] (blood 10 min after i.v. injection), in series [4] (blood 30 min) and in series [4] (blood 60 min) were 85% of initial injection, 63% of initial injection and 30% of initial injection, respectively. The “Percent of initial injection, urine” value is 25% of initial injection in series [4] (urine 30 min) and 92% of initial injection in series [4] (urine 180 min).
